Laboratory results taken from article PMC11579541, “In vitro, in vivo, and in silico approaches for evaluating the preclinical DMPK profiles of ammoxetine, a novel chiral serotonin and norepinephrine reuptake inhibitor” (Frontiers in Pharmacology, 2024).
Values joined by “and” are separate entries in the source; they are usually repeats but may differ in a detail not shown here. Equal values may be shown once.

How the values were obtained:
[1] = Stability of ammoxetine in dog plasma (method validation); type: in vitro ADME
Experimental: LC-MS-MS methods were developed and validated to accurately quantify ammoxetine in rat and beagle dog plasma, as well as in rat tissues, urine, feces, and bile. The methods involved direct protein precipitation using methanol, providing a straightforward and rapid sample preparation process with high extraction recovery rates (absolute recoveries >85% in all matrices). […] The precision and accuracy of the plasma methods were evaluated through intra-day and inter-day analyses, yielding satisfactory results. Additionally, stability tests conducted in rat and beagle dog plasma met the analytical requirements for determination. Furthermore, the majority of the analytes met the necessary criteria for matrix effects when quantifying ammoxetine in biological samples. The developed methods are well-suited for determining ammoxetine concentrations in rat and beagle dog biological samples, enabling in vivo studies of this compound. They provide specific and highly sensitive quantification, facilitating investigations into the drug’s behavior in vivo. Detailed results regarding the establishment and validation of these analytical methods can be found in Supplementary Data Sheet 2.

CYP 2C19 = CYP 2C19 (Homo sapiens, UniProt P33261); test: Phenotyping with recombinant human CYP 2C19; type: in vitro ADME; design: purchased BD (Woburn, USA); conditions: 5 μmol/L, 25 pmol/mL CYP, 1 h
Experimental: Ammoxetine (final concentration 5 μmol/L) was incubated with recombinant human CYP 3A4, CYP 1A2, CYP 2C9, CYP 2C19, and CYP 2D6 (final concentration 25 pmol/mL) in a 5 mmol/L K2HPO4 buffer at pH 7.4. The incubations were performed in quintuplicate. NADPH (final concentration 1 mmol/L) was added to initiate the incubation process. The mixture was then incubated at 37°C for 1 h. To stop the reaction, 200 μL of ice-cold acetonitrile/methanol (1:1, v/v) containing 500 ng/mL of L-phencynonate (IS) was added. The samples were vortexed for 2 min and centrifuged at 13,800×g and 4°C for 10 min. The supernatants obtained were analyzed using an LC-MS-MS method. To establish appropriate controls, zero-time controls and blank controls in the absence of NADPH were set up in parallel.

Excretion study in rats = type: in vivo, SD rats; conditions: 20 mg/kg oral; for Bile Cumulative excretion rate / Bile Excretion rate: bile duct cannulated rats; for Feces Cumulative excretion rate / Feces Excretion rate / Urine Cumulative excretion rate / Urine Excretion rate: rats
Experimental: Five SD rats were pre-adapted in separate metabolic cages with access to water and a solid diet. They were then administered a single oral dose of 20 mg/kg of ammoxetine after a 12-h fasting period and free access to water. Feces and urine samples were collected at specific time intervals: 0–5 h, 5–12 h, 12–24 h, 24–48 h, and 48–72 h post-administration. The dried fecal weights and urine volumes were measured and recorded at each sampling period. The collected feces were ground, thoroughly mixed, and then homogenized in distilled water to create a 10% homogenate, which was used as the fecal sample. In parallel, after a 12-h fasting period with free access to water, five SD rats were anesthetized, and bile duct cannulation was performed to collect bile samples. Once recovered from anesthesia, these rats received a single oral dose of 20 mg/kg of ammoxetine via oral gavage. Bile was collected at the following time points: 0–5 h, 5–12 h, 12–24 h, 24–48 h, and 48–72 h post-dosing, and its volume was measured. All collected samples were stored at −30°C until further processing. For sample processing, 100 μL of feces homogenates, urine, or bile samples were taken and mixed with 100 μL of L-phencynonate (IS, 50 ng/mL) and 300 μL of methanol. After vortexing, the mixture was centrifuged at 13,800×g for 10 min. The resulting supernatants were analyzed using an LC-MS-MS method.

Sequence of CYP 2C19 (P33261 whole entry): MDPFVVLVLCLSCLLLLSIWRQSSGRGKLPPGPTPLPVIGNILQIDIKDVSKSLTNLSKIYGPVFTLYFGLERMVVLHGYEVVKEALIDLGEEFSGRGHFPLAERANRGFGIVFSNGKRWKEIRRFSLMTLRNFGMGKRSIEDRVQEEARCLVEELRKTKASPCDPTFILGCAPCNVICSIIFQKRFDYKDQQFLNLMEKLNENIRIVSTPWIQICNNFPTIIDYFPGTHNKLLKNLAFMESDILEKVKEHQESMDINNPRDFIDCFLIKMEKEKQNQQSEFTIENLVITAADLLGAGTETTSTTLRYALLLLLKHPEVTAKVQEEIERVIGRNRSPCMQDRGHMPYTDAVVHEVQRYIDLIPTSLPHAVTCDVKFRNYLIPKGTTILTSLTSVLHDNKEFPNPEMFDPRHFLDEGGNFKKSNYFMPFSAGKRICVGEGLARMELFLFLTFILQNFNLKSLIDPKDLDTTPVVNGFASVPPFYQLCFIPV

Which “Stability in dog plasma, Accuracy/%” value ([1]; 5 ng/mL, 0d (-30℃)) does the source give for `CNCC[C@H](Oc1cccc2c1OCO2)c1cccs1` [ammoxetine] here?
Its value is 91.60±7.22%.

And the “Stability in dog plasma, Accuracy/%” value ([1]; 5 ng/mL, 15d (-30℃))?
Its value is 97.58±13.78%.

And the “Stability in dog plasma, Accuracy/%” value ([1]; 5 ng/mL, 25d (-30℃))?
The value was 97.61±9.77%.

And the “Stability in dog plasma, Accuracy/%” value ([1]; 5 ng/mL, in auto-sampler for 24h)?
The value was 96.64±4.72%.

What about the “Stability in dog plasma, Accuracy/%” value ([1]; 5 ng/mL, repeated freezing and thawing for 3 times) of the same compound?
The value was 96.59±4.01%.

What about the “Stability in dog plasma, Accuracy/%” value ([1]; 5 ng/mL, room temperature for 4h) of the same compound?
Its value is 99.00±11.24%.

And the “Stability in dog plasma, Accuracy/%” value ([1]; 100 ng/mL, 0d (-30℃))?
The value was 100.10 ±1.62%.

And the “Stability in dog plasma, Accuracy/%” value ([1]; 100 ng/mL, 15d (-30℃))?
The value was 98.63±4.19%.

And the “Stability in dog plasma, Accuracy/%” value ([1]; 100 ng/mL, 25d (-30℃))?
Its value is 101.68 ±6.57%.

What about the “Stability in dog plasma, Accuracy/%” value ([1]; 100 ng/mL, in auto-sampler for 24h) of the same compound?
The value was 99.51±7.50%.

And the “Stability in dog plasma, Accuracy/%” value ([1]; 100 ng/mL, repeated freezing and thawing for 3 times)?
The value was 98.25±6.55%.

And the “Stability in dog plasma, Accuracy/%” value ([1]; 100 ng/mL, room temperature for 4h)?
The value was 101.87 ±8.27%.

What about the “Stability in dog plasma, Accuracy/%” value ([1]; 1200 ng/mL, 0d (-30℃)) of the same compound?
Its value is 92.06±3.06%.

And the “Stability in dog plasma, Accuracy/%” value ([1]; 1200 ng/mL, 15d (-30℃))?
The value was 92.48±4.64%.

And the “Stability in dog plasma, Accuracy/%” value ([1]; 1200 ng/mL, 25d (-30℃))?
The value was 93.96±3.46%.

And the “Stability in dog plasma, Accuracy/%” value ([1]; 1200 ng/mL, in auto-sampler for 24h)?
Its value is 92.32±4.25%.

And the “Stability in dog plasma, Accuracy/%” value ([1]; 1200 ng/mL, repeated freezing and thawing for 3 times)?
Its value is 92.01±6.32%.

What about the “Stability in dog plasma, Accuracy/%” value ([1]; 1200 ng/mL, room temperature for 4 h) of the same compound?
Its value is 93.89±4.32%.

What about the Transformation ratio% (CYP 2C19) of the same compound?
Its Transformation ratio% is 26.27±1.85% and 26.27%.

What about the “residuary concentration of ammoxetine, Mean±SD” value (CYP 2C19) of the same compound?
The value was 5.05±0.13.

What about the “Bile Cumulative excretion rate” value (Excretion study in rats; 0–5 h) of the same compound?
Its value is 0.089 ± 0.058%.

And the “Bile Excretion rate” value (Excretion study in rats; 0–5 h)?
Its value is 0.089 ± 0.058%.

What about the “Bile Cumulative excretion rate” value (Excretion study in rats; 5–12 h) of the same compound?
The value was 0.271 ± 0.257%.

And the “Bile Excretion rate” value (Excretion study in rats; 5–12 h)?
The value was 0.182 ± 0.212%.

What about the “Bile Cumulative excretion rate” value (Excretion study in rats; 12–24 h) of the same compound?
Its value is 0.420 ± 0.384%.

And the “Bile Excretion rate” value (Excretion study in rats; 12–24 h)?
The value was 0.149 ± 0.146%.

And the “Bile Cumulative excretion rate” value (Excretion study in rats; 24–48 h)?
The value was 0.420 ± 0.384%.

And the “Bile Excretion rate” value (Excretion study in rats; 48–72 h)?
Its value is 0.016 ± 0.016%.

And the “Bile Cumulative excretion rate” value (Excretion study in rats; 48–72 h (at 72 h))?
Its value is 0.436 ± 0.400%.

And the “Feces Cumulative excretion rate” value (Excretion study in rats; 0–5 h)?
The value was 0.010 ± 0.008%.

What about the “Feces Excretion rate” value (Excretion study in rats; 0–5 h) of the same compound?
The value was 0.010 ± 0.008%.

And the “Urine Cumulative excretion rate” value (Excretion study in rats; 0–5 h)?
Its value is 0.116 ± 0.034%.

And the “Urine Excretion rate” value (Excretion study in rats; 0–5 h)?
Its value is 0.116 ± 0.034%.

What about the “Feces Cumulative excretion rate” value (Excretion study in rats; 5–12 h) of the same compound?
Its value is 0.216 ± 0.060%.

What about the “Feces Excretion rate” value (Excretion study in rats; 5–12 h) of the same compound?
The value was 0.206 ± 0.056%.

What about the “Urine Cumulative excretion rate” value (Excretion study in rats; 5–12 h) of the same compound?
The value was 0.223 ± 0.069%.

What about the “Urine Excretion rate” value (Excretion study in rats; 5–12 h) of the same compound?
The value was 0.107 ± 0.048%.

And the “Feces Cumulative excretion rate” value (Excretion study in rats; 12–24 h)?
Its value is 0.361 ± 0.168%.

And the “Feces Excretion rate” value (Excretion study in rats; 12–24 h)?
Its value is 0.145 ± 0.126%.

What about the “Urine Cumulative excretion rate” value (Excretion study in rats; 12–24 h) of the same compound?
The value was 0.273 ± 0.124%.

What about the “Urine Excretion rate” value (Excretion study in rats; 12–24 h) of the same compound?
Its value is 0.050 ± 0.057%.

What about the “Feces Cumulative excretion rate” value (Excretion study in rats; 24–48 h) of the same compound?
The value was 0.380 ± 0.180%.

And the “Feces Excretion rate” value (Excretion study in rats; 24–48 h)?
Its value is 0.019 ± 0.016%.

What about the “Urine Cumulative excretion rate” value (Excretion study in rats; 24–48 h) of the same compound?
Its value is 0.287 ± 0.134%.

What about the “Urine Excretion rate” value (Excretion study in rats; 24–48 h) of the same compound?
The value was 0.014 ± 0.010%.

And the “Feces Excretion rate” value (Excretion study in rats; 48–72 h)?
Its value is 0.002 ± 0.003%.

What about the “Urine Excretion rate” value (Excretion study in rats; 48–72 h) of the same compound?
The value was 0.005 ± 0.003%.

And the “Feces Cumulative excretion rate” value (Excretion study in rats; 48–72 h (at 72 h))?
The value was 0.382 ± 0.180%.

And the “Urine Cumulative excretion rate” value (Excretion study in rats; 48–72 h (at 72 h))?
The value was 0.292 ± 0.137%.
